In article PMC7317212 (Chemmedchem, 2020):

Experiments:
mGAT2 = target: T1, mGAT2 (Mus musculus, UniProt P31651); assay: [^3H]GABA uptake assay, HEK293 cells expressing mGAT2; type: cell-based; conditions: for remaining activity at 100 µM: HEK293, in presence of 100 μM compound; for IC50: [^3H]GABA uptake, pIC50±SEM
T1 construct: expressed in transfected cells; host or cells: HEK293
T1 sequence (P31651 1-614): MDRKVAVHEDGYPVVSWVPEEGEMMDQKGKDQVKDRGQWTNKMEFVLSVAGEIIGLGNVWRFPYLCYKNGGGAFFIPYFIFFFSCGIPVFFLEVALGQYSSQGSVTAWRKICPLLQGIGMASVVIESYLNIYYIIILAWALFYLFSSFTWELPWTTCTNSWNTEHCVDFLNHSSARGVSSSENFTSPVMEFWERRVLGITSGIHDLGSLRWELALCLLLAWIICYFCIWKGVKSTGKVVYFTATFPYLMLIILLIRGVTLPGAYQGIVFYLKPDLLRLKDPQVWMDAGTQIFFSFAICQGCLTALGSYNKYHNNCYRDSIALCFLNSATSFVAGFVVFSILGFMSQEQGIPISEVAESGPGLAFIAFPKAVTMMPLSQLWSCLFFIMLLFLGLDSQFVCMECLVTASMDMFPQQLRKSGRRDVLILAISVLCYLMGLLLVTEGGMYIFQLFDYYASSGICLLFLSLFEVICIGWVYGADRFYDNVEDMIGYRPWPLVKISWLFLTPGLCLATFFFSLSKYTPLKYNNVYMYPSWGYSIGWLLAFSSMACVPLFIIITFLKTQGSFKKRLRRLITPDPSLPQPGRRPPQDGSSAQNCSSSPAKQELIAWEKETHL
Procedure: (§1) For compounds with pIC50 ([^3H]GABA uptake assay) or pK i (MS Binding Assays) values close to or above 5.0, these experiments were repeated twice and SEM have been calculated.
(§2) [^3H]GABA uptake assays: The [^3H]GABA uptake assays were performed according to Kragler et al.33 Cells were grown in 150 cm^2 plates to a confluence of 70–90 % up to passage 25. After detachment the cells were centrifuged 5 min at 500×g, washed for three times in phosphate buffered saline and, finally, resuspended in Krebs buffer (2.5 mM CaCl2, 1.2 mM MgSO4, 1.2 mM KH2PO4, 4.7 mM KCl, 11 mM glucose, 25 mM Tris, 119 mM NaCl, pH 7.2). The uptake assays were performed with aliquots of the resulting cell suspension (about 100000–200000 cells per well) in a total volume of 250 μl in 96 well 2.2 mL deep well plates. The cells were equilibrated for 25 min in Krebs buffer in the presence of the test compound at 37 °C in a gently shaking water bath. […] After addition of 25 μl of a solution containing [^3H]GABA (2.22 TBq/mmol, ARC, St Louis, MO, USA) and unlabeled GABA in Krebs (final concentration 8 nM [^3H]GABA and 32 nM unlabeled GABA for mGAT1, mGAT3, mGAT4 and 20 nM [^3H]GABA and 20 nM unlabeled GABA for mGAT2) the cells were incubated for further 4 min (mGAT1, mGAT3, mGAT4) or 10 minutes (mGAT2), respectively. The incubation was stopped by filtration through Sartorius MGC micro glass fiber filters pre‐soaked for 1 h in 0.9 % NaCl by means of a Brandell MWXR‐96TI cell harvester (Brandell, Gaithersburg, MD, USA) under reduced pressure. The filters were rinsed two times with cold 0.9 % NaCl and subsequently transferred to 96 well sample plates (Perkin Elmer LAS, Boston, MA, USA). After addition of 200 μl Rotiszint Eco Plus (Roth, Karlsruhe, Germany) per well the radioactivity was determined in a microbeta liquid scintillation counter (Perkin Elmer LAS, Boston, MA, USA). Non‐specific uptake was determined in presence of 10 mM GABA for mGAT1, mGAT3 and mGAT4 or 100 mM GABA for mGAT2, respectively. The results are expressed as means±S.E.M. of at least three separate experiments, each carried out in triplicate.

mGAT4 = target: T2, mGAT4 (Mus musculus, UniProt P31650); assay: [^3H]GABA uptake assay, HEK293 cells expressing mGAT4; type: cell-based; conditions: for remaining activity at 100 µM: HEK293, in presence of 100 μM compound; for IC50: [^3H]GABA uptake, pIC50±SEM
T2 construct: expressed in transfected cells; host or cells: HEK293
T2 sequence (P31650 1-627): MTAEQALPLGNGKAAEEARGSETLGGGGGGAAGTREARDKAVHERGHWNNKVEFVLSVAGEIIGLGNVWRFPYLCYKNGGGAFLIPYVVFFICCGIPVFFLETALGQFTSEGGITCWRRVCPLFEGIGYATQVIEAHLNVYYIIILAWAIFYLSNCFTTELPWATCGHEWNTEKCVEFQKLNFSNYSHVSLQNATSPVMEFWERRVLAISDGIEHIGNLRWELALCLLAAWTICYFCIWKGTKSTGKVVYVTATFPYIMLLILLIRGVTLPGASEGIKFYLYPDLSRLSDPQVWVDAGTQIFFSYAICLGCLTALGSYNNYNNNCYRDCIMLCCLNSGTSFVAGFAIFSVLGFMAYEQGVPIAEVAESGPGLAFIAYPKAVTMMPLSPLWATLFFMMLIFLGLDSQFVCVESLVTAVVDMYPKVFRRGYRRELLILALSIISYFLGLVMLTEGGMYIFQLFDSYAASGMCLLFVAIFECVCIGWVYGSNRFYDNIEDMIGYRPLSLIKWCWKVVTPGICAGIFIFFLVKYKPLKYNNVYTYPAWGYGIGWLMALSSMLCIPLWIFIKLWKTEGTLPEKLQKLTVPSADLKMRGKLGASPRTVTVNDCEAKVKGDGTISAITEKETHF
Procedure: as §1, §2

mGAT1 [1] = target: T3, mGAT1 (Mus musculus, UniProt P31648); assay: MS Binding Assay with NO711 as native MS marker; conditions: in presence of 100 μM compound; read-out: remaining specific NO711 binding (mGAT1)
T3 construct: expressed in transfected cells; host or cells: HEK293
Procedure: as §1
MS Binding Assays: The MS Binding Assays were performed with mGAT1 membrane preparations obtained from a stably mGAT1 expressing HEK293 cell line and NO711 as unlabeled marker in competitive binding experiments as previously described in detail.34 In short, test compounds were investigated at 7 concentrations in presence of 10 nM NO 711 in competition experiments. Non specific binding was defined as binding remaining in the presence of 100 mM GABA. Incubation was terminated by transfer of 200 μL per well onto a 96‐well filter plate (Acroprep, glass fibre, 1.0 μm, 350 μL, Pall, Dreieich, Germany) with a 12 channel pipette. After rapid vacuum‐filtration the filters were washed with ice cold 0.9 % NaCl (5×150 μL) and dried at 50 °C for 60 min. Afterwards, the filters were eluted with 100 μL methanol containing [^2H10]NO711 (1.4 nM) as internal standard per well into a deep‐well plate by application of vacuum. This step was repeated twice resulting in a total elution volume of 300 μL. Finally, a volume of 130 μL ammonium formate buffer (10 mM, pH 7.0) was added per well and the generated samples analyzed by LC‐ESI‐MS/MS using a API 3200 as described in detail previously.40

mGAT3 = target: T4, mGAT3 (Mus musculus, UniProt P31649); assay: [^3H]GABA uptake assay, HEK293 cells expressing mGAT3; type: cell-based; conditions: for remaining activity at 100 µM: HEK293, in presence of 100 μM compound; for IC50: [^3H]GABA uptake, pIC50±SEM
T4 construct: expressed in transfected cells; host or cells: HEK293
T4 sequence (P31649 1-602): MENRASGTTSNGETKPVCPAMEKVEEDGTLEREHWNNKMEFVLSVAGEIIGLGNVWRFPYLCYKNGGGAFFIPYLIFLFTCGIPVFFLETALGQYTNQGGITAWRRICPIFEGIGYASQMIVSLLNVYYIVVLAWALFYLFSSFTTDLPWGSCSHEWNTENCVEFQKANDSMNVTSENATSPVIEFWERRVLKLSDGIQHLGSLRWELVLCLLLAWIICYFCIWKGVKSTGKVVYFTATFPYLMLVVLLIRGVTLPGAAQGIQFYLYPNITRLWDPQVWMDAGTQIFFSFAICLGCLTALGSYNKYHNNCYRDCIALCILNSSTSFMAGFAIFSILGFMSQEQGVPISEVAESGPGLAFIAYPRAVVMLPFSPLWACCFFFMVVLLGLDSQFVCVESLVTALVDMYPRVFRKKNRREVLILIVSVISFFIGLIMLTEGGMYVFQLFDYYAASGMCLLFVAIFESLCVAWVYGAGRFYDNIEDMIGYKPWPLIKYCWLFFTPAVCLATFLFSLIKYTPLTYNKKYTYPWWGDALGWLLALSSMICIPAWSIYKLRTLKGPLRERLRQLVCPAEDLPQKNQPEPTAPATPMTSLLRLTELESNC
Procedure: as §1, §2

mGAT1 [2] = target: T3, mGAT1; assay: [^3H]GABA uptake assay, HEK293 cells expressing mGAT1; type: cell-based; conditions: for remaining activity at 100 µM: HEK293, in presence of 100 μM compound; for IC50: [^3H]GABA uptake, pIC50±SEM
Procedure: as §1, §2

| remaining activity at 100 µM (mGAT2) [%] | remaining activity at 100 µM (mGAT4) [%] | remaining activity at 100 µM (mGAT1 [1]) [%] | remaining activity at 100 µM (mGAT3) [%] | remaining activity at 100 µM (mGAT1 [2]) [%] | IC50 (mGAT2) [µM] | IC50 (mGAT4) [µM] | IC50 (mGAT3) [µM] | IC50 (mGAT1 [2]) [µM] | SMILES |
| --- | --- | --- | --- | --- | --- | --- | --- | --- | --- |
| 103 | 66.1 | 95.8 | 58.8 | 75.5 | – | – | – | – | CCOC(=O)C1CCCN(CCOC(c2ccc(CNC3(C(=O)OCC)CC3)cc2)(c2ccc(OC)cc2)c2ccc(OC)cc2)C1 (racemic) [12 p, rac‐ Ethyl 1‐(2‐{[4‐({[1‐(ethoxycarbonyl)cyclopropyl]amino}methyl)‐phenyl]bis[4‐methoxyphenyl]methoxy}ethyl)piperidine‐3‐carboxylate] |
| – | – | 72.4 | – | – | 19.1 | 21.9 | 23.4 | 25.7 | CCOC(=O)CCNCc1ccc(C(OCCN2CCCC(C(=O)OCC)C2)(c2ccc(OC)cc2)c2ccc(OC)cc2)cc1 (racemic) [12 o, rac ‐Ethyl 1‐{2‐[(4‐{[(3‐ethoxy‐3‐oxopropyl)amino]methyl}phenyl)bis(4‐methoxyphenyl)methoxy]ethyl}piperidine‐3‐carboxylate] |
| 56.1 | 60 | 89.3 | – | 57.8 | – | – | 79.4 | – | CCOC(=O)C1CCCN(CCOC(c2ccc(OC)cc2)(c2ccc(OC)cc2)c2ccc(C(N)=O)cc2)C1 (racemic) [12 j, rac‐ Ethyl 1‐{2‐[(4‐carbamoylphenyl)bis(4‐methoxyphenyl)methoxy]‐ethyl}piperidine‐3‐carboxylate] |
| 72.6 | – | 77.4 | – | – | – | 1.29 | 6.92 | 72.4 | COc1ccc(C(OCCN2CCC[C@H](C(=O)O)C2)(c2ccc(C=O)cc2)c2ccc(OC)cc2)cc1 [(S)‐5 a, (S)‐1‐{2‐[(4‐Formylphenyl)bis(4‐methoxyphenyl)methoxy]ethyl}piper‐idine‐3‐carboxylic acid] |
| – | – | 72.9 | 50.6 | 64.9 | 50.1 | 89.1 | – | – | CCOC(=O)C1CCCN(CCOC(c2ccc(COC)cc2)(c2ccc(COC)cc2)c2ccc(OC)cc2)C1 (racemic) [12 h, rac‐ Ethyl 1‐(2‐{bis[4‐(methoxymethyl)phenyl][4‐methoxyphenyl]‐methoxy}ethyl)piperidine‐3‐carboxylate] |

The next lines start with the compound.

| SMILES | remaining activity at 100 µM (mGAT2) [%] | remaining activity at 100 µM (mGAT4) [%] | remaining activity at 100 µM (mGAT1 [1]) [%] | remaining activity at 100 µM (mGAT3) [%] | remaining activity at 100 µM (mGAT1 [2]) [%] | IC50 (mGAT2) [µM] | IC50 (mGAT4) [µM] | IC50 (mGAT3) [µM] | IC50 (mGAT1 [2]) [µM] |
| --- | --- | --- | --- | --- | --- | --- | --- | --- | --- |
| COCc1ccc(C(OCCN2CCCC(C(=O)O)C2)(c2ccc(COC)cc2)c2ccc(COC)cc2)cc1 (racemic) [5 i, rac‐ 1‐(2‐{Tris[4‐(methoxymethyl)phenyl]methoxy}ethyl)piperidine‐3‐carboxylic acid] | 72.6 | 76.1 | 92.7 | 68.3 | 90.7 | – | – | – | – |
| CCOC(=O)C1CCCN(CCOC(c2ccc(C#N)cc2)(c2ccc(OC)cc2)c2ccc(OC)cc2)C1 (racemic) [12 g, rac‐ Ethyl 1‐{2‐[(4‐cyanophenyl)bis(4‐methoxyphenyl)methoxy]ethyl}‐piperidine‐3‐carboxylate] | 80.7 | 71.9 | 97.6 | 63.6 | 76.6 | – | – | – | – |
| COc1ccc(C(OCCN2CCCC(C(=O)O)C2)(c2ccc(CNC3(C(=O)O)CC3)cc2)c2ccc(OC)cc2)cc1 (racemic) [5 p, rac‐ 1‐{2‐[(4‐{[(1‐Carboxycyclopropyl)amino]methyl}phenyl)bis(4‐methoxyphenyl)methoxy]ethyl}piperidine‐3‐carboxylic acid] | 76 | – | 58.8 | 69.1 | 78.2 | – | 13.2 | – | – |
| CCOC(=O)C1CCCN(CCOC(c2ccc(COC)cc2)(c2ccc(OC)cc2)c2ccc(OC)cc2)C1 (racemic) [12 f, rac‐ Ethyl 1‐(2‐{[4‐(methoxymethyl)phenyl]bis[4‐methoxyphenyl]‐methoxy}ethyl)piperidine‐3‐carboxylate] | 58.8 | 50.8 | 55.3 | 56.9 | 66.6 | – | – | – | – |
| COc1ccc(C(OCCN2CCCC(C(=O)O)C2)(c2ccc(CNCC(=O)O)cc2)c2ccc(OC)cc2)cc1 (racemic) [5 n, rac‐ 1‐{2‐[(4‐{[(Carboxymethyl)amino]methyl}phenyl)bis(4‐methoxy‐phenyl)methoxy]ethyl}piperidine‐3‐carboxylic acid] | 96.1 | 72.2 | 86.2 | 90.9 | 81.8 | – | – | – | – |
